ChEMBL document CHEMBL1153273, “4-(Alkylthio)- and 4-(arylthio)-benzonitrile derivatives as androgen receptor antagonists for the topical suppression of sebum production” (Bioorg Med Chem Lett, 2009)

Key:
Androgen receptor [1] = target: T1, Androgen receptor (Homo sapiens, UniProt P10275)
T1 sequence (P10275 whole entry): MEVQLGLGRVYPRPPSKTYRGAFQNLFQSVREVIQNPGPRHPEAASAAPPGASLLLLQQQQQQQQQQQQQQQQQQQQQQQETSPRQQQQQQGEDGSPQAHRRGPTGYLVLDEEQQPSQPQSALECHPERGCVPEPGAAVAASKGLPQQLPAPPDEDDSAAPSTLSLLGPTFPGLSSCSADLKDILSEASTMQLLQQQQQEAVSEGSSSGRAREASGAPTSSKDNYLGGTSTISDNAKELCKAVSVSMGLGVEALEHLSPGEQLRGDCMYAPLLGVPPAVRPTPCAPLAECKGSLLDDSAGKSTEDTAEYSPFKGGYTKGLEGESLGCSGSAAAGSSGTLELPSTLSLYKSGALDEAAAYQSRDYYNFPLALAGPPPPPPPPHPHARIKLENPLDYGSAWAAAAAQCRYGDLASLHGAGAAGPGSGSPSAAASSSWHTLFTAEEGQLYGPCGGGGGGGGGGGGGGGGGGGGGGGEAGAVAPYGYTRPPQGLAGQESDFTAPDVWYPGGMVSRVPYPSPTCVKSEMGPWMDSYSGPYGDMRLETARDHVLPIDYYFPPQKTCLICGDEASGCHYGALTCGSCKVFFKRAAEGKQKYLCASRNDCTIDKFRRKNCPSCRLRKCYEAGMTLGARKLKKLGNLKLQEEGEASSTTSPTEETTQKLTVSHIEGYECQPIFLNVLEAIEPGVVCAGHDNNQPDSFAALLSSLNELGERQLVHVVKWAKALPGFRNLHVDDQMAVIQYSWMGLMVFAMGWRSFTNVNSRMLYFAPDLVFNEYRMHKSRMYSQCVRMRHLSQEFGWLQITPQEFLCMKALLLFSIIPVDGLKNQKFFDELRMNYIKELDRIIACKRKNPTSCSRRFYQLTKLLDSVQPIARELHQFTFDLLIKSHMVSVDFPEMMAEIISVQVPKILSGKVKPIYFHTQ
Description: Antagonist activity at human androgen receptor expressed in human MDA-MB453 cells by luciferase reporter gene assay

Androgen receptor [2] = target: T1, Androgen receptor; assay: biochemical
Description: Displacement of [3H]DHT from human cloned androgen receptor expressed in Sf9 cells

Syrian golden hamster [3] = assay: Reduction of cholesterol ester production in Syrian hamster ear topically dosed at 1% twice daily for 5 days per week for two weeks measured after 18 to 24 hrs of final dose by HPLC lipid analysis; assay type: functional, Mesocricetus auratus; design: scale not given: the % may be the effect or the level left
Syrian golden hamster [4] = assay: Reduction of wax ester production in Syrian hamster ear topically dosed at 1% twice daily for 5 days per week for two weeks measured after 18 to 24 hrs of final dose by HPLC lipid analysis; assay type: functional, Mesocricetus auratus; design: scale not given: the % may be the effect or the level left

## Cc1ccccc1Sc1ccc(C#N)cc1Cl
Androgen receptor [1]
  IC50: 78 nM
Androgen receptor [2]
  IC50: 43 nM

## CC(C)Sc1ccc(C#N)c(C(F)(F)F)c1
Syrian golden hamster [3]
  Activity: 40%
Syrian golden hamster [4]
  Activity: 46%
Androgen receptor [1]
  IC50: 89 nM
Androgen receptor [2]
  IC50: 20 nM

## N#Cc1ccc(SC2CCC2)cc1C(F)(F)F
Androgen receptor [1]
  IC50: 167 nM
Androgen receptor [2]
  IC50: 194 nM

## Cc1cc(C)c(Sc2ccc(C#N)c(C(F)(F)F)c2)c(C)c1
Androgen receptor [2]
  IC50: 1340 nM

## N#Cc1ccc(SCC2CCC2)cc1C(F)(F)F
Androgen receptor [1]
  IC50: 702 nM
Androgen receptor [2]
  IC50: 63 nM

## COc1cc(C#N)ccc1Oc1cccc(C)c1
Androgen receptor [2]
  IC50: 353 nM

## CCCSc1ccc(C#N)c(OC)c1
Androgen receptor [1]
  IC50: > 1000 nM
Androgen receptor [2]
  IC50: 40 nM

## CC1(C)C(=O)N(c2ccc(C#N)c(C(F)(F)F)c2)C(=O)N1CCCCO [RU-58841]
Syrian golden hamster [4]
  Activity: 95%

## COc1cc(Oc2ccc(C)cc2)ccc1C#N
Androgen receptor [1]
  IC50: 209 nM
Androgen receptor [2]
  IC50: 200 nM

## COc1cc(Sc2ccccc2OC)ccc1C#N
Androgen receptor [1]
  IC50: 35 nM
Androgen receptor [2]
  IC50: 20 nM

## COc1cc(Sc2c(C)cc(C)cc2C)ccc1C#N
Androgen receptor [1]
  IC50: 69 nM
Androgen receptor [2]
  IC50: 39 nM

## COc1cc(SCC2CC2)ccc1C#N
Androgen receptor [1]
  IC50: 55 nM
Androgen receptor [2]
  IC50: 169 nM

## COc1cc(Oc2cccc(C)c2)ccc1C#N
Androgen receptor [1]
  IC50: 197 nM
Androgen receptor [2]
  IC50: 57 nM

## COc1cc(C#N)ccc1Oc1ccc(C)cc1
Androgen receptor [2]
  IC50: 5210 nM

## Cc1cccc(C)c1Sc1ccc(C#N)c(C(F)(F)F)c1
Androgen receptor [2]
  IC50: 411 nM

## CCCCSc1ccc(C#N)c(OC)c1
Androgen receptor [1]
  IC50: 66 nM
Androgen receptor [2]
  IC50: 84 nM

## COc1cc(SCCC(C)C)ccc1C#N
Androgen receptor [2]
  IC50: 1730 nM

## Cc1ccccc1[S+]([O-])c1ccc(C#N)cc1Cl (configuration not stated)
Androgen receptor [2]
  IC50: > 10000 nM

## CCCSc1ccc(C#N)c(C(F)(F)F)c1
Androgen receptor [1]
  IC50: 11 nM
Androgen receptor [2]
  IC50: 23 nM

## CC(C)CCSc1ccc(C#N)c(C(F)(F)F)c1
Androgen receptor [2]
  IC50: 519 nM

## COc1ccccc1Sc1ccc(C#N)c(C(F)(F)F)c1
Androgen receptor [1]
  IC50: 37 nM
Androgen receptor [2]
  IC50: 56 nM

## COc1cc(Sc2c(C)cccc2C)ccc1C#N
Syrian golden hamster [3]
  Activity: 45%
Syrian golden hamster [4]
  Activity: 66%
Androgen receptor [1]
  IC50: 30 nM
Androgen receptor [2]
  IC50: 43 nM

## N#Cc1ccc(Sc2ccccc2F)cc1C(F)(F)F
Syrian golden hamster [3]
  Activity: 50%
Syrian golden hamster [4]
  Activity: 64%
Androgen receptor [1]
  IC50: 54 nM
Androgen receptor [2]
  IC50: 184 nM

## COc1cc(SC(C)C)ccc1C#N
Syrian golden hamster [3]
  Activity: 46%
Syrian golden hamster [4]
  Activity: 59%
Androgen receptor [1]
  IC50: 10 nM
Androgen receptor [2]
  IC50: 29 nM

## CC(C)(C)Sc1ccc(C#N)c(C(F)(F)F)c1
Androgen receptor [2]
  IC50: 315 nM

## COc1cc(SCC2CCC2)ccc1C#N
Androgen receptor [2]
  IC50: 441 nM

## Cc1ccccc1Sc1ccc(C#N)c(C(F)(F)F)c1
Androgen receptor [1]
  IC50: 123 nM
Androgen receptor [2]
  IC50: 225 nM

## COc1cc(C#N)ccc1Oc1ccccc1C
Androgen receptor [1]
  IC50: 48 nM
Androgen receptor [2]
  IC50: 115 nM

## N#Cc1ccc(SCC2CC2)cc1C(F)(F)F
Syrian golden hamster [3]
  Activity: 35%
Syrian golden hamster [4]
  Activity: 43%
Androgen receptor [1]
  IC50: 133 nM
Androgen receptor [2]
  IC50: 35 nM

## COc1cc(Oc2ccccc2C)ccc1C#N
Androgen receptor [1]
  IC50: 81 nM
Androgen receptor [2]
  IC50: 24 nM

## CCCCSc1ccc(C#N)c(C(F)(F)F)c1
Androgen receptor [1]
  IC50: 838 nM
Androgen receptor [2]
  IC50: 49 nM
